Experimental data from publication PMC8153946, “Substrate Selectivity of Coumarin Derivatives by Human CYP1 Enzymes: In Vitro Enzyme Kinetics and In Silico Modeling” (ACS Omega, 2021).

Experiments:
Assay type in all cases: biochemical
human CYP1B1 = target: T1, human CYP1B1 (Homo sapiens, UniProt Q16678); test: Michaelis–Menten kinetics of oxidation to fluorescent 7-hydroxy metabolite by recombinant CYP1B1; design: key to screening activity class: NA, no activity was observed.; LA, low screening activity at the 20 μM substrate and 25 nM CYP concentration; conditions: for screening activity class: CYP1B1, 20 μM substrate and 25 nM CYP
T1 construct: purchased BD Biosciences Discovery Labware (Woburn, MA, USA); host or cells: baculovirus-insect cells
T1 sequence (Q16678 1-543): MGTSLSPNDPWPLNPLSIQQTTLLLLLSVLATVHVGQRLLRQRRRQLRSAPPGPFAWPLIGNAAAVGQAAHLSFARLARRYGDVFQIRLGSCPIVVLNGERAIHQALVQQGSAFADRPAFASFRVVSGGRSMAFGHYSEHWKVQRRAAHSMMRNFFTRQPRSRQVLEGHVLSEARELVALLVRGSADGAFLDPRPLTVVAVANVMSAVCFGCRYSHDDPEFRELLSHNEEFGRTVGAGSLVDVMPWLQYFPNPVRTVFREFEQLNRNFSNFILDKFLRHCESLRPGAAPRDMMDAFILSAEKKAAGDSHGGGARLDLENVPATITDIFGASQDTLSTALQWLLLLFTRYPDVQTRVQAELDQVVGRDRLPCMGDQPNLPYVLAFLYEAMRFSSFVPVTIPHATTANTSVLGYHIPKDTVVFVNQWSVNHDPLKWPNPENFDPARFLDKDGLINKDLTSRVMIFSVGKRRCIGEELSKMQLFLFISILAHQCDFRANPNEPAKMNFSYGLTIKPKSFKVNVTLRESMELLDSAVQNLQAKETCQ
Description: (§1) Baculovirus-insect cell-expressed human CYP1A1, CYP1A2, CYP1B1, CYP2A6, CYP2B6, CYP2C8, CYP2C9, CYP2C19, CYP2D6, CYP2E1, CYP3A4, CYP3A5, and CYP3A7 were purchased from BD Biosciences Discovery Labware (Woburn, MA, USA) and used according to the manufacturer’s instructions.
(§2) The kinetic assays were carried out in 100 μL volume containing 100 mM Tris-HCl buffer pH 7.4, 0–40 μM coumarin derivative or 0–10 μM 7-ethoxyresorufin, 1–25 nM recombinant CYP or 0–0.1 g/L microsomal protein, and 20% NADPH regenerating system. Incubations took place at 37 °C in 96-multiwell plates; the fluorescence was measured with a Victor[2] plate reader (PerkinElmer Life Sciences, Turku, Finland). The detailed conditions are described in the figures and tables. The reaction was started by adding NADPH, and fluorescence was measured at 2 min intervals for 40 min using excitation at 405 nm and emission at 460 nm for oxidation of coumarin derivatives[18] and excitation at 570 nm and emission at 615 nm for ethoxyresorufin or pentoxyresorufin 7-O-dealkylations. Incubations without the substrate, enzyme, or NADPH were used as blank reactions. Resorufin was used as a standard, and 3-(4-fluorophenyl)-7-hydroxycoumarin was used as the surrogate standards to calculate the amount of product formed. The linear phase of the reactions was used for calculations.
(§3) Enzyme kinetic parameters were analyzed using the nonlinear Michaelis–Menten equation v = Vmax × S/(Km + S), in which v is the rate for 7-hydroxylation of a coumarin derivative, S is its concentration, and Vmax value is the limiting rate of the reaction of 7-hydroxylation, which reached a half-maximal rate at a concentration of Km for the substrate.

human CYP1A1 = target: T2, human CYP1A1 (Homo sapiens, UniProt P04798); test: Michaelis–Menten kinetics of oxidation to fluorescent 7-hydroxy metabolite by recombinant CYP1A1; design: key to screening activity class: NA, no activity was observed.; LA, low screening activity at the 20 μM substrate and 25 nM CYP concentration; conditions: for screening activity class: CYP1A1, 20 μM substrate and 25 nM CYP; for Vmax: recombinant CYP1A1, surrogate standard, 95% confidence interval in brackets
T2 construct: purchased BD Biosciences Discovery Labware (Woburn, MA, USA); host or cells: baculovirus-insect cells
T2 sequence (P04798 1-512): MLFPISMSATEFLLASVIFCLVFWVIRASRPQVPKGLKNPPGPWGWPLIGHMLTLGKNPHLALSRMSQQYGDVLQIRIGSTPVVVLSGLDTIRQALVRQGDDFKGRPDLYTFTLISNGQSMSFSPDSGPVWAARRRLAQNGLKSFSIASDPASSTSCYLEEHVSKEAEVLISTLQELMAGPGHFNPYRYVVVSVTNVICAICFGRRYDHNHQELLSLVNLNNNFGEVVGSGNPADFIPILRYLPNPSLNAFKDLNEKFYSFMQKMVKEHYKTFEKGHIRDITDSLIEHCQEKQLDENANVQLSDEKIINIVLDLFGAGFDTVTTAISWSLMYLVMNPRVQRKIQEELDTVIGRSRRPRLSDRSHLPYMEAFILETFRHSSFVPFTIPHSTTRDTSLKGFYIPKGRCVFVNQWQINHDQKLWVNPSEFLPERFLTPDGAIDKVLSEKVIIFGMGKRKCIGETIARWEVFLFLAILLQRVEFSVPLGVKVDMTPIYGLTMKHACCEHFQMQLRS
Description: as §1, §2, §3

[1] = test system: 13 recombinant human CYP enzymes; test: Oxidation rates by 13 recombinant human CYP enzymes at fixed substrate concentration (Figure 2); conditions: 25 nM CYP; for CYP1 form oxidizing the substrate fastest: 10 μM coumarin derivative or 1 μM 7-ethoxy/7-pentoxyresorufin
Description: as §1, §2
To find out which CYP forms oxidize the 11 novel coumarin derivatives, we determined their oxidation rates to the corresponding 7-hydroxycoumarin metabolites by 13 recombinant human CYP enzymes at a fixed 10 μM substrate concentration (Figure 2). All except 21, 22, and 23 were oxidized faster by one or several CYP1 forms than by the other CYP forms. […] Oxidation rates of the classical CYP substrates 7-ethoxycoumarin, 7-ethoxyresorufin, and 7-pentoxyresorufin were also determined. […] Oxidation of 7-ethoxycoumarin and 7-ethoxyresorufin was 35 and 60 times faster, respectively, than oxidation of 7-pentoxyresorufin. 7-Ethoxyresorufin was oxidized by CYP1A2 and CYP1B1 at 30–40% of the rate of CYP1A1.
Figure 2 Oxidation of the coumarin derivatives and 7-ethoxy- and 7-pentoxyresorufin by 13 human CYP forms. The formation of fluorescent metabolites was determined in incubations containing a 25 nM CYP, a 20% NADPH regenerating system, and a 10 μM coumarin derivative or 1 μM 7-ethoxy/7-pentoxyresorufin in 100 mM Tris-HCl pH 7.4 in the kinetic experimental setup. […] Note the variation in Y-axis scales between subpanels.

[2] = test system: human CYP1 enzymes (CYP1A1, CYP1A2, CYP1B1); test: Oxidation efficiency compared across all CYP1 forms (Table 1); conditions: based on Table 1
Description: as §1, §2, §3

screening activity class (human CYP1B1)	Structure (SMILES)	CYP1 form oxidizing the substrate fastest [1]	substrate efficiency compared among CYP1 enzymes [2]	further results
LA	O=c1oc2ccccc2cc1-c1cccc(O)c1 [Compound 23, 3-(3-hydroxyphenyl)coumarin]	oxidized faster by CYP1A2 than CYP1A1 or CYP1B1		screening activity class (human CYP1A1): LA; fluorescence change and rate of the oxidation ([1]; fixed substrate concentration): lowest
	CCOc1ccc2nc3ccc(=O)cc-3oc2c1 [Compound 25, 7-ethoxyresorufin, reference compound]	oxidized faster by CYP1A1 than the other CYP1 enzymes	efficient substrates for CYP1A1 compared with CYP1A2 and CYP1B1	oxidation rate by CYP1A2 and CYP1B1 relative to the rate of CYP1A1 ([1]; 1 μM substrate): 30–40%; oxidation rate relative to oxidation of 7-pentoxyresorufin ([1]; fixed substrate concentration): 60 times
LA	COc1ccc2cc(-c3ccc(OC(F)(F)F)cc3)c(=O)oc2c1 [Compound 18, 3-(4-trifluoromethoxyphenyl)-7-methoxycoumarin]	oxidized faster by CYP1A2 than CYP1A1 or CYP1B1	oxidized with equal efficiency by CYP1A1 and CYP1A2 and weakly by CYP1B1	
LA	COc1ccc2oc(=O)c(-c3ccc(OC(F)(F)F)cc3)cc2c1 [Compound 16, 3-(4-trifluoromethoxyphenyl)-6-methoxycoumarin]	oxidized faster by CYP1A1 than CYP1A2 or CYP1B1	oxidized with equal efficiency by CYP1A1 and CYP1A2 and weakly by CYP1B1	
LA	Cc1ccc2oc(=O)c(-c3ccc(F)cc3)cc2c1 [Compound 21, 3-(4-fluorophenyl)-6-methylcoumarin]	oxidized faster by CYP1A2 than CYP1A1 or CYP1B1		screening activity class (human CYP1A1): LA; fluorescence change and rate of the oxidation ([1]; fixed substrate concentration): almost equally low
	COc1cccc(-c2cc3cc(OC)ccc3oc2=O)c1 [Compound 19, 3-(3-methoxyphenyl)-6-methoxycoumarin]	oxidized faster by CYP1A1 than CYP1A2 or CYP1B1	oxidized with equal efficiency by all CYP1 enzymes	
	O=c1oc2ccc(O)cc2cc1-c1cccc(O)c1 [Compound 15, 3-(3-hydroxyphenyl)-6-hydroxycoumarin]	oxidized faster by CYP1A2 than CYP1A1 or CYP1B1	efficient substrate for CYP1A2 compared with CYP1A1 and CYP1B1	Vmax (human CYP1B1; recombinant CYP1B1, surrogate standard, 95% confidence interval in brackets): 0.29 mol/(min·mol CYP)
	COc1ccc2oc(=O)c(-c3ccc(O)c(F)c3)cc2c1 [Compound 13, 3-(3-fluoro-4-hydroxyphenyl)-6-methoxycoumarin]	oxidized faster by CYP1A1 than CYP1A2 or CYP1B1	efficient substrates for CYP1A1 compared with CYP1A2 and CYP1B1	Vmax (human CYP1A1): 32 mol/(min·mol CYP)
	CC(=O)Oc1ccc(-c2cc3cc(Cl)ccc3oc2=O)cc1 [Compound 20, 3-(4-acetoxyphenyl)-6-chlorocoumarin]	oxidized faster by CYP1A1 than CYP1A2 or CYP1B1	efficient substrate for CYP1B1 compared with CYP1A1 and 1A2	Vmax (human CYP1A1): 6.5 mol/(min·mol CYP)

Structure (SMILES)	screening activity class (human CYP1B1)	CYP1 form oxidizing the substrate fastest [1]	substrate efficiency compared among CYP1 enzymes [2]	further results
COc1ccc(-c2cc3cc(OC(C)=O)ccc3oc2=O)cc1 [Compound 17, 3-(4-methoxyphenyl)-6-acetoxycoumarin]	LA	oxidized faster by CYP1A2 than CYP1A1 or CYP1B1		
